Results reported in patent publication US10065990B2, “Cyclic peptide compound, and preparation method, pharmaceutical composition and use thereof” (HANGZHOU GUANYU BIO-MEDICAL CO., LTD, priority 2013, dated 2018).
Read-outs that look alike come from different tables or passages of the source.

Experiments:
[1] = biological target: T1, HDAC7 (Homo sapiens, UniProt Q8WUI4); test: HDAC biochemical activity measurement (fluorescent substrate deacetylation);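 note: fluorogenic deacetylation assay using acetyl-lysine substrate at 20 µM, enzyme and compound incubated 30 min at 37 °C, then developer added, fluorescence read at 360/460 nm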; conditions: HDAC7; 37° C. 30 minutes
T1 sequence (Q8WUI4 1-952): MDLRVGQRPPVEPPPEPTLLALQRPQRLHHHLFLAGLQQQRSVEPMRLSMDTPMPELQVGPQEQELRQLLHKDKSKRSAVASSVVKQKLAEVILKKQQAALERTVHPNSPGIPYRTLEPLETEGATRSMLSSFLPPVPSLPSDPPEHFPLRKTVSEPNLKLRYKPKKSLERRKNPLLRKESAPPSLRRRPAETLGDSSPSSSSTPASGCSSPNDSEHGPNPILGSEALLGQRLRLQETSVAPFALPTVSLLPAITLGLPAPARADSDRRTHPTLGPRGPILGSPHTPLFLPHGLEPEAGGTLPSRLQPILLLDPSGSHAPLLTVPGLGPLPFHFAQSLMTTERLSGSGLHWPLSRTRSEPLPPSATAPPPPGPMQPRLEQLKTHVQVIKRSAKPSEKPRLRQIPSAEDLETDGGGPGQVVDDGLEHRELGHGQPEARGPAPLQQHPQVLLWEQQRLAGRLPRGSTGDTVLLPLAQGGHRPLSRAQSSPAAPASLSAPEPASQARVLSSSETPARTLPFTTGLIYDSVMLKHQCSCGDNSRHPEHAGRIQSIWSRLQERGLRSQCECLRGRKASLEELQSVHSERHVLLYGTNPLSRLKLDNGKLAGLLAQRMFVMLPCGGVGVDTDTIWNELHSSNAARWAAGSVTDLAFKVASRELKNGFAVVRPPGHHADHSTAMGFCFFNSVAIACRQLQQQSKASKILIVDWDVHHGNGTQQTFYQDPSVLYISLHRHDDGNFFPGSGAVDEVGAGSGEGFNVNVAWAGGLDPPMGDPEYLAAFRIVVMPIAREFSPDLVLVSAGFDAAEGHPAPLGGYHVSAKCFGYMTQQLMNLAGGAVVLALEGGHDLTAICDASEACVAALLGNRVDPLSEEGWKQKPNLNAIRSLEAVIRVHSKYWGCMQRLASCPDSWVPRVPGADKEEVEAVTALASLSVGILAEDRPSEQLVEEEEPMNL

[2] = system: Hela (human cervical cancer cells); test: MTT cancer cell growth inhibition; format: cell-based; conditions: Homo sapiens, HeLa, 72 h, MTT, 72 hours incubation, read-out: GI50 Hela
Source text: (§1) MTT assay principle is yellow MTT can penetrate membrane into the cell, succinic dehydrogenase of the mitochondria in living cells can make exogenous MTT reduction of insoluble in water of blue-violet acicular formazan for crystallization and deposition in the cell, crystallization can be dissolved dimethyl sulfoxide (DMSO) solution, detected its absorbance at 490 nm/570 nm wavelength by enzyme-linked immunosorbent assay, which can reflect the number of cells.
(§2) Using DMEM+10% FBS culture medium or using 1640+10% FBS culture, respectively.
(§3) a) Cells were seeded in 96-well plates with the inoculation of 1500/well, 190 μl/hole, 37° C., 5% of CO2 incubator overnight;
(§4) b) The next day each well was added 10 μl of different drugs. The final concentration of drug was 10^−5˜10^−10M, three parallel holes; 37° C., 5% CO2 culture incubator for 72 hours incubation;
(§5) c) Per well was added 20 μl 5 mg/ml of MTT, 37° C., 5% CO2 culture incubator for 4 hours incubation;
(§6) d) The supernatant was discarded. Each well was added 100 μl of DMSO and oscillation;
(§7) e) 570 nm readings. Calculate cell viability. GI50 calculation based on the results.

[3] = system: U937 (human leukemia cells); test: MTT cancer cell growth inhibition; format: cell-based; conditions: Homo sapiens, U-937, 72 h, MTT, 72 hours incubation, read-out: GI50 U93
Source text: as §1, §2, §3, §4, §5, §6, §7

[4] = system: SGC-7901 (human gastric cancer cells); test: MTT cancer cell growth inhibition; format: cell-based; conditions: Homo sapiens, SGC-7901, 72 h, MTT, 72 hours incubation, SGC-7901 cells; read-out: GI50 SGC-7901
Source text: as §1, §2, §3, §4, §5, §6, §7

[5] = system: HCC827 (human non-small cell lung cancer cells); test: MTT cancer cell growth inhibition; format: cell-based; conditions: Homo sapiens, HCC827, 72 h, MTT, 72 hours incubation, HCC827 cells; read-out: GI50 HCC827
Source text: as §1, §2, §3, §4, §5, §6, §7

[6] = system: KBM-5 (human chronic myelogenous leukemia); test: MTT cancer cell growth inhibition; format: cell-based; conditions: Homo sapiens, KBM5, 72 h, MTT, 72 hours incubation, KBM-5 cells; read-out: GI50 KBM-5
Source text: as §1, §2, §3, §4, §5, §6, §7

[7] = system: A549 (human lung cancer cells); test: MTT cancer cell growth inhibition; format: cell-based; conditions: Homo sapiens, A549, 72 h, MTT, 72 hours incubation, read-out: GI50 A54
Source text: as §1, §2, §3, §4, §5, §6, §7

[8] = system: K562 (human leukemia cells); test: MTT cancer cell growth inhibition; format: cell-based; conditions: Homo sapiens, K562, 72 h, MTT, 72 hours incubation, K562 cells; read-out: GI50 K562
Source text: as §1, §2, §3, §4, §5, §6, §7

[9] = system: KBM5-T315I (human chronic myelogenous leukemia); test: MTT cancer cell growth inhibition; format: cell-based; conditions: Homo sapiens, 72 h, MTT, 72 hours incubation, KBM5-T315I cells; read-out: GI50 KBM5-T315I
Source text: as §1, §2, §3, §4, §5, §6, §7

[10] = system: lncap (prostate cancer cells); test: MTT cancer cell growth inhibition; format: cell-based; conditions: Homo sapiens, LNCaP, 72 h, MTT, 72 hours incubation, read-out: GI50 lnca
Source text: as §1, §2, §3, §4, §5, §6, §7

[11] = system: Huh-7 (human hepatoma cells); test: MTT cancer cell growth inhibition; format: cell-based; conditions: Homo sapiens, Huh-7, 72 h, MTT, 72 hours incubation, Huh-7 cells; read-out: GI50 Huh-7
Source text: as §1, §2, §3, §4, §5, §6, §7

[12] = system: PANC-1 (Pac-1, human pancreatic cancer cells); test: MTT cancer cell growth inhibition; format: cell-based; conditions: Homo sapiens, PANC-1, 72 h, MTT, 72 hours incubation, read-out: GI50 PAN
Source text: as §1, §2, §3, §4, §5, §6, §7

[13] = system: HT1080 (human fibrosarcoma cells); test: MTT cancer cell growth inhibition; format: cell-based; conditions: Homo sapiens, HT-1080, 72 h, MTT, 72 hours incubation, read-out: GI50 HT1
Source text: as §1, §2, §3, §4, §5, §6, §7

[14] = system: MDA-MB-231 (breast cancer cells); test: MTT cancer cell growth inhibition; format: cell-based; conditions: Homo sapiens, MDA-MB-231, 72 h, read-out: GI50 MDA-MB-231, MTT, 72 hours incubation, MDA-MB-231 cells
Source text: as §1, §2, §3, §4, §5, §6, §7

[15] = system: Bel-7402 (human hepatoma cells); test: MTT cancer cell growth inhibition; format: cell-based; conditions: Homo sapiens, Bel-7402, 72 h, MTT, 72 hours incubation, Bel-7402 cells; read-out: GI50 Bel-7402
Source text: as §1, §2, §3, §4, §5, §6, §7

[16] = system: BGC-823 (human gastric cancer cells); test: MTT cancer cell growth inhibition; format: cell-based; conditions: Homo sapiens, BGC-823, 72 h, MTT, 72 hours incubation, read-out: GI50 BG
Source text: as §1, §2, §3, §4, §5, §6, §7

[17] = system: DU145 (human prostate cancer cells); test: MTT cancer cell growth inhibition; format: cell-based; conditions: Homo sapiens, DU-145, 72 h, MTT, 72 hours incubation, read-out: GI50 Du1
Source text: as §1, §2, §3, §4, §5, §6, §7

[18] = system: N-87 (human gastric cancer cells); test: MTT cancer cell growth inhibition; format: cell-based; conditions: Homo sapiens, 72 h, MTT, 72 hours incubation, N-87 cells; read-out: GI50 N-87
Source text: as §1, §2, §3, §4, §5, §6, §7

[19] = system: MOLT-4 (human acute lymphoblastic leukemia cells); test: MTT cancer cell growth inhibition; format: cell-based; conditions: Homo sapiens, MOLT-4, 72 h, MTT, 72 hours incubation, read-out: GI50 Mol
Source text: as §1, §2, §3, §4, §5, §6, §7

[20] = system: MCF-7 (human breast cancer cells); test: MTT cancer cell growth inhibition; format: cell-based; conditions: Homo sapiens, MCF7, 72 h, 72 hours incubation, read-out: GI50 MCF
Source text: as §1, §2, §3, §4, §5, §6, §7

[21] = system: H1975 (non-small cell lung adenocarcinoma); test: MTT cancer cell growth inhibition; format: cell-based; conditions: Homo sapiens, NCI-H1975, 72 h, MTT, 72 hours incubation, H1975 cells; read-out: GI50 H1975
Source text: as §1, §2, §3, §4, §5, §6, §7

Row | IC50 HDAC7 [1] | GI50 [2] [µM] | GI50 [3] [µM] | GI50 [4] [µM] | GI50 [5] [µM] | GI50 [6] [µM] | GI50 [7] [µM] | GI50 [8] [µM] | GI50 [9] [µM] | GI50 [10] [µM] | GI50 [11] [µM] | GI50 [12] [µM] | GI50 [13] [µM] | GI50 [14] [µM] | GI50 [15] [µM] | GI50 [16] [µM] | GI50 [17] [µM] | GI50 [18] [µM] | GI50 [19] [µM] | GI50 [21] [µM] | SMILES | further results
1 | no activity | 0.05 | 0.05 | 0.016 | 0.047 | 0.023 | 0.04 | 0.019 | 0.053 | 0.02 | 0.056 | 0.07 | 0.07 | 0.086 | 0.021 | 0.01 | 0.03 | 0.093 | 0.02 | 0.097 | C/C=C1\NC(=O)c2ccc(F)c(n2)CCNC(=O)C[C@@H](/C=C/CCSC(C)=O)OC(=O)[C@H](C(C)C)NC1=O [Compound 105] | GI50 [20]: 0.02 µM
2 | no activity | 0.08 | 0.05 | 0.036 | 0.038 | 0.053 | 0.05 | 0.028 | 0.028 | 0.08 | 0.071 | 0.05 | 0.08 | 0.037 | 0.037 | 0.05 | 0.07 | 0.046 | 0.08 | 0.036 | C/C=C1\NC(=O)c2cccc(n2)CNC(=O)C[C@@H](/C=C/CCS)OC(=O)[C@H](Cc2ccc(O)cc2)NC1=O [Compound 127] | GI50 [20]: 0.07 µM
3 | no activity |  |  | 0.028 | 0.026 | 0.083 |  | 0.083 | 0.033 |  | 0.053 |  |  | 0.045 | 0.055 |  |  | 0.046 |  | 0.057 | C/C=C1\NC(=O)c2nc(ccc2SC)CNC(=O)C[C@@H](/C=C/CCSC(C)=O)OC(=O)[C@@H](C)NC1=O [Compound 220] | GI50 ([2]; Hela cells): 0.03 µM; GI50 ([3]; U937 cells): 0.08 µM; GI50 ([7]; A549 cells): 0.04 µM; GI50 ([10]; lncap cells): 0.06 µM; GI50 ([12]; PANC-1 cells): 0.03 µM; GI50 ([13]; HT1080 cells): 0.08 µM; GI50 ([16]; BGC-823 cells): 0.03 µM; GI50 ([17]; DU145 cells): 0.03 µM; GI50 ([19]; MOLT-4 cells): 0.05 µM; GI50 ([20]; MCF-7 cells): 0.02 µM
